Measured values: patent US6737383B1, “Herbicidal oxadiazolidines” (priority 1999, dated 2004)

How the values were obtained:
chickweed = assay: Test E chickweed; format: in vivo, Stellaria media; settings: Postemergence
Method: (§1) Compounds evaluated in this test were formulated in a non-phytotoxic solvent mixture which included a surfactant and applied to plants that were in the 1- to 4-leaf stage (postemergence application). A mixture of sandy loam soil and greenhouse potting mix in a 60:40 ratio was used for the postemergence test.
(§2) Plantings of these crops and weed species were adjusted to produce plants of appropriate size for the postemergence test. All plant species were grown using normal greenhouse practices. Crop and weed species include annual bluegrass (Poa annua), blackgrass (Alopecurus myosuroides), black nightshade (Solanum nigra), chickweed (Stellaria media), common poppy (Papaver rhoeas), deadnettle (Lamium amplexicaule), downy brome (Bromus tectorum), field violet (Viola arvensis), galium (Galium aparine), green foxtail (Setaria viridis), Italian ryegrass (Lolium multiflorum), jointed goatgrass (Aegilops cylindrica), kochia (Kochia scoparia), lambsquarters (Chenopodium album), littleseed canarygrass (Phalaris minor), rape (Brassica napus), redroot pigweed (Amaranthus retroflexus), Russian thistle (Salsola kali), scentless chamomile (Matricaria inodora), spring barley (Hordeum vulgare), sugar beet (Beta vulgaris), sunflower (Helianthus annuus), ivyleaf speedwell (Veronica hederaefolia), spring wheat (Triticum aestivum), winter wheat (Triticum aestivum), wild buckwheat (Polygonum convolvulus), wild mustard (Sinapis arvensis), wild oat (Avena fatua), windgrass (Apera spica-venti) and winter barley (Hordeum vulgare).
(§3) Treated plants and untreated controls were maintained in a greenhouse for approximately 21 to 28 days, after which all treated plants were compared to untreated controls and visually evaluated. […] A dash response (-) means no test result.

downy brome [1] = assay: Test E downy brome; format: in vivo, Bromus tectorum; settings: Postemergence; for Plant response rating, Downy brome: 0 to 100 scale
Method: as §1, §2, §3

rape = assay: Test E rape; format: in vivo, Brassica napus; settings: Postemergence
Method: (§4) […] A mixture of sandy loam soil and greenhouse potting mix in a 60:40 ratio was used for the postemergence test.
as §2, §3

wild buckwheat [2] = assay: Test E wild buckwheat; format: in vivo, Polygonum convolvulus; settings: Postemergence
In short: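 For postemergence, plants at the 1- to 4-leaf stage, in a 60:40 mix of sandy loam and potting mix, treated with compound formulated in a surfactant-containing non-phytotoxic solvent. Visual assessment versus untreated controls followed roughly 21–28 days in the greenhouse.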

wild mustard = assay: Test E wild mustard; format: in vivo, Sinapis arvensis; settings: Postemergence
Method: as §4, §2, §3

downy brome [3] = assay: Test E downy brome; format: in vivo, Bromus tectorum; settings: Preemergence
galium = assay: Test E galium; format: in vivo, Galium aparine; settings: Preemergence
kochia = assay: Test E kochia; format: in vivo, Kochia scoparia; settings: Preemergence
Russian thistle = assay: Test E Russian thistle; format: in vivo, Salsola kali; settings: Preemergence
spring wheat = assay: Test E spring wheat; format: in vivo, Triticum aestivum; settings: Preemergence
wild buckwheat [4] = assay: Test E wild buckwheat; format: in vivo, Polygonum convolvulus; settings: Preemergence
barnyardgrass = assay: Test C postemergence barnyardgrass; format: in vivo, Echinochloa crus-galli; settings: 0 to 100 scale, 0 no effect, 100 complete control
In short: (§5)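 Scores (0 = no effect, 100 = complete control) come from visual comparison with untreated controls after about 14–21 days. Spray formulation was a non-phytotoxic solvent mixture including surfactant; plants grew in a 60:40 sandy loam–potting mix blend.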

cocklebur = assay: Test C postemergence cocklebur; format: in vivo, Xanthium strumarium; settings: 0 to 100 scale, 0 no effect, 100 complete control
Method: as §1, with “grown for various periods of time before treatment” for “in the 1- to 4-leaf stage”
(§6) Plantings of these crops and weed species were adjusted to produce plants of appropriate size for the postemergence test. All plant species were grown using normal greenhouse practices. Crop and weed species include arrowleaf sida (Sida rhombifolia), barnyardgrass (Echinochloa crus-galli), cocklebur (Xanthium strumarium), common ragweed (Ambrosia elatior), corn (Zea mays), cotton (Gossypium hirsutum), eastern black nightshade (Solanum ptycanthum), fall panicum (Panicum dichotomiflorum), field bindweed (Convolvulus arvensis), giant foxtail (Setaria faberii), hairy beggarticks (Bidens pilosa), ivyleaf morningglory (Ipomoea hederacea), johnsongrass (Sorghum halepense), ladysthumb smartweed (Polygonum persicaria), lambsquarters (Chenopodium album), large crabgrass (Digitaria sanguinalis), purple nutsedge (Cyperus rotundus), redroot pigweed (Amaranthus retroflexus), soybean (Glycine max), surinam grass (Brachiaria decumbens), velvetleaf (Abutilon theophrasti) and wild poinsettia (Euphorbia heterophylla).
(§7) Treated plants and untreated controls were maintained in a greenhouse for approximately 14, to 21 days, after which all treated plants were compared to untreated controls and visually evaluated. Plant response ratings, summarized in Table C, were based upon a 0 to 100 scale where 0 was no effect and 100 was complete control. A dash response (−) means no test result.

eastern black nightshade = assay: Test C postemergence eastern black nightshade; format: in vivo, Solanum ptycanthum; settings: 0 to 100 scale, 0 no effect, 100 complete control
Method: as §1, with “grown for various periods of time before treatment” for “in the 1- to 4-leaf stage”
as §6, §7

lambsquarters = assay: Test C postemergence lambsquarters; format: in vivo, Chenopodium album; settings: 0 to 100 scale, 0 no effect, 100 complete control
Method: as §1, with “grown for various periods of time before treatment” for “in the 1- to 4-leaf stage”
as §6, §7

large crabgrass = assay: Test C postemergence large crabgrass; format: in vivo, Digitaria sanguinalis; settings: 0 to 100 scale, 0 no effect, 100 complete control
In short: as §5

soybean = assay: Test C postemergence soybean; format: in vivo, Glycine max; settings: 0 to 100 scale, 0 no effect, 100 complete control
Method: as §1, with “grown for various periods of time before treatment” for “in the 1- to 4-leaf stage”
as §6, §7

[5] = Rate 250 g/ha, 0 to 100 scale (0 no effect, 100 complete control)
[6] = Rate 500 g/ha, 0 to 100 scale, 0 no effect, 100 complete control
[7] = Rate 500 g/ha, 0 no effect, 100 complete control
[8] = Rate 125 g/ha, 0 to 100 scale (0 no effect, 100 complete control)
[9] = Rate 500 g/ha, 0 to 100 scale where 0 is no effect and 100 is complete control
[10] = Rate 250 g/ha, 0 to 100 scale where 0 is no effect and 100 is complete control

CC(C)N(C(=O)n1oc(=O)n(C(C)C)c1=O)c1ccc(Cl)cc1 [Compound 114]
30: Plant response rating, Downy brome (downy brome [1]; [7]) | Plant response rating, Wild buckwheat (wild buckwheat [2]; [5]) | Plant response rating, Wild buckwheat (wild buckwheat [2]; [6]) | Plant response rating, Kochia (kochia; Rate 250 g/ha, 0 to 100 scale) | Plant response rating, Kochia (kochia; [9])
60: Plant response rating, Downy brome (downy brome [3]; Rate 250 g/ha, 0 to 100 scale) | Plant response rating, Galium (galium; Rate 250 g/ha, 0 to 100 scale)
25: Plant response rating, Kochia (kochia; [8])
50: Plant response rating, Rape (rape; [5]) | Plant response rating, Wild mustard (wild mustard; [5]) | Plant response rating, Downy brome (downy brome [3]; [9]) | Plant response rating, Wild buckwheat (wild buckwheat [4]; Rate 250 g/ha, 0 to 100 scale)
75: Plant response rating, Wild mustard (wild mustard; Rate 125 g/ha, 0 to 100 scale)
80: Plant response rating, Wild buckwheat (wild buckwheat [4]; [9])
70: Plant response rating, Wild mustard (wild mustard; [6]) | Plant response rating, Galium (galium; [9])
10: Plant response rating, Chickweed (chickweed; Rate 125 g/ha, 0 to 100 scale) | Plant response rating, Chickweed (chickweed; [6]) | Plant response rating, Downy brome (downy brome [3]; [8]) | Plant response rating, Spring Wheat (spring wheat; Rate 250 g/ha, 0 to 100 scale)
0: Plant response rating, Chickweed (chickweed; [5]) | Plant response rating, Downy brome (downy brome [1]; Rate 125 g/ha) | Plant response rating, Downy brortie (downy brome [1]; [5]) | Plant response rating, Russian thistle (Russian thistle; [8]) | Plant response rating, Russian thistle (Russian thistle; Rate 250 g/ha, 0 to 100 scale) | Plant response rating, Russian thistle (Russian thistle; [9]) | Plant response rating, Spring Wheat (spring wheat; [8])
20: Plant response rating, Wild buckwheat (wild buckwheat [2]; Rate 125 g/ha, 0 to 100 scale) | Plant response rating, Spring Wheat (spring wheat; [9]) | Plant response rating, Wild buckwheat (wild buckwheat [4]; [8])
55: Plant response rating, Rape (rape; Rate 125 g/ha, 0 to 100 scale) | Plant response rating, Rape (rape; [6])
100: Plant response rating, Galium (galium; [8])

CCn1c(=O)on(C(=O)N(c2ccccc2)C(C)C)c1=O [Compound 117]
20: Plant response rating Large crabgrass (large crabgrass; Rate 280 g/ha)
60: Plant response rating Large crabgrass (large crabgrass; Rate 560 g/ha) | Plant response rating, Soybean (soybean; Rate 1120 g/ha)
0: Plant response rating, Cocklebur (cocklebur; Rate 140 g/ha) | Plant response rating, Cocklebur (cocklebur; Rate 280 g/ha) | Plant response rating, Cocklebur (cocklebur; Rate 560 g/ha) | Plant response rating, Cocklebur (cocklebur; Rate 1120 g/ha) | Plant response rating E. blacknightsh (eastern black nightshade; Rate 140 g/ha) | Plant response rating E. blacknightsh (eastern black nightshade; Rate 280 g/ha) | Plant response rating, Lambsquarters (lambsquarters; Rate 140 g/ha) | Plant response rating, Lambsquarters (lambsquarters; Rate 280 g/ha) | Plant response rating, Lambsquarters (lambsquarters; Rate 560 g/ha) | Plant response rating, Lambsquarters (lambsquarters; Rate 1120 g/ha) | Plant response rating Large crabgrass (large crabgrass; Rate 140 g/ha)
90: Plant response rating, Barnyardgrass (barnyardgrass; Rate 560 g/ha) | Plant response rating, Barnyardgrass (barnyardgrass; Rate 1120 g/ha)
40: Plant response rating, Soybean (soybean; Rate 560 g/ha)
35: Plant response rating, Soybean (soybean; Rate 280 g/ha)
80: Plant response rating, Barnyardgrass (barnyardgrass; Rate 280 g/ha) | Plant response rating E. blacknightsh (eastern black nightshade; Rate 1120 g/ha) | Plant response rating Large crabgrass (large crabgrass; Rate 1120 g/ha)
10: Plant response rating, Soybean (soybean; Rate 140 g/ha)
70: Plant response rating, Barnyardgrass (barnyardgrass; Rate 140 g/ha) | Plant response rating E. blacknightsh (eastern black nightshade; Rate 560 g/ha)

CC(C)N(C(=O)n1oc(=O)n(C(C)C)c1=O)c1ccc(F)cc1 [Compound 131]
25: Plant response rating, Soybean (soybean; Rate 280 g/ha)
95: Plant response rating, Barnyardgrass (barnyardgrass; Rate 560 g/ha) | Plant response rating, Barnyardgrass (barnyardgrass; Rate 1120 g/ha)
0: Plant response rating, Cocklebur (cocklebur; Rate 140 g/ha) | Plant response rating, Cocklebur (cocklebur; Rate 280 g/ha) | Plant response rating, Cocklebur (cocklebur; Rate 560 g/ha) | Plant response rating E. blacknightsh (eastern black nightshade; Rate 140 g/ha) | Plant response rating, Lambsquarters (lambsquarters; Rate 140 g/ha) | Plant response rating, Lambsquarters (lambsquarters; Rate 280 g/ha) | Plant response rating, Lambsquarters (lambsquarters; Rate 1120 g/ha) | Plant response rating Large crabgrass (large crabgrass; Rate 140 g/ha) | Plant response rating, Downy brome (downy brome [1]; Rate 125 g/ha) | Plant response rating, Rape (rape; Rate 125 g/ha, 0 to 100 scale) | Plant response rating, Rape (rape; [6]) | Rape plant response rating (rape; [10]) | Plant response rating, Wild buckwheat (wild buckwheat [2]; Rate 125 g/ha, 0 to 100 scale) | Plant response rating, Wild buckwheat (wild buckwheat [2]; [6]) | Wild buckwheat plant response rating (wild buckwheat [2]; [10]) | Plant response rating, Wild mustard (wild mustard; Rate 125 g/ha, 0 to 100 scale) | Wild mustard plant response rating (wild mustard; [10]) | Plant response rating, Kochia (kochia; [8]) | Russian thistle plant response rating (0 to 100 scale) (Russian thistle; Rate 250 g/ha) | Plant response rating, Russian thistle (Russian thistle; [9])
100: Plant response rating, Downy brome (downy brome [3]; [9]) | Plant response rating, Galium (galium; [9]) | Plant response rating, Kochia (kochia; [9]) | Spring Wheat plant response rating (0 to 100 scale) (spring wheat; Rate 250 g/ha) | Plant response rating, Spring Wheat (spring wheat; [9]) | Plant response rating, Wild buckwheat (wild buckwheat [4]; [9])
70: Plant response rating, Barnyardgrass (barnyardgrass; Rate 140 g/ha) | Plant response rating, Barnyardgrass (barnyardgrass; Rate 280 g/ha) | Plant response rating Large crabgrass (large crabgrass; Rate 560 g/ha) | Plant response rating, Downy brome (downy brome [1]; [7]) | Plant response rating, Spring Wheat (spring wheat; [8]) | Wild buckwheat plant response rating (0 to 100 scale) (wild buckwheat [4]; Rate 250 g/ha)
80: Plant response rating E. blacknightsh (eastern black nightshade; Rate 1120 g/ha) | Downy brome plant response rating (0 to 100 scale) (downy brome [3]; Rate 250 g/ha)
10: Plant response rating, Cocklebur (cocklebur; Rate 1120 g/ha) | Plant response rating E. blacknightsh (eastern black nightshade; Rate 280 g/ha) | Plant response rating, Chickweed (chickweed; Rate 125 g/ha, 0 to 100 scale) | Plant response rating, Rape (rape; Rate 62 g/ha, 0 to 100 scale) | Kochia plant response rating (0 to 100 scale) (kochia; Rate 250 g/ha) | Plant response rating, Russian thistle (Russian thistle; [8])
20: Plant response rating Large crabgrass (large crabgrass; Rate 280 g/ha) | Plant response rating, Soybean (soybean; Rate 140 g/ha) | Chickweed plant response rating (chickweed; [10])
85: Plant response rating Large crabgrass (large crabgrass; Rate 1120 g/ha) | Plant response rating, Downy brome (downy brome [3]; [8])
55: Plant response rating, Downy brome (downy brome [1]; Rate 62 g/ha)
60: Plant response rating, Chickweed (chickweed; Rate 62 g/ha, 0 to 100 scale) | Plant response rating, Galium (galium; [8])
50: Plant response rating E. blacknightsh (eastern black nightshade; Rate 560 g/ha) | Plant response rating, Chickweed (chickweed; [6]) | Downy brome plant response rating (downy brome [1]; [10]) | Plant response rating, Wild buckwheat (wild buckwheat [2]; Rate 62 g/ha, 0 to 100 scale) | Galium plant response rating (0 to 100 scale) (galium; Rate 250 g/ha)
45: Plant response rating, Soybean (soybean; Rate 1120 g/ha)
30: Plant response rating, Soybean (soybean; Rate 560 g/ha) | Plant response rating, Wild mustard (wild mustard; Rate 62 g/ha, 0 to 100 scale) | Plant response rating, Wild mustard (wild mustard; [6]) | Plant response rating, Wild buckwheat (wild buckwheat [4]; [8])
